In patent publication US20050233058A1, “Aminoacid derivatives of dicarboxylic acids as flavor ingredients” (priority 2004, published 2005):

Test: Organoleptic description of the compounds (umami, mouthfeel)
Conditions: for Additional feeling imparted: in a meet type application

Compound | Additional feeling imparted | Taste / organoleptic character of the compound
CC(C)C[C@H](NC(=O)CCCC(=O)O)C(=O)O [Glutaryl-Leu, N-(4-carboxybutanoyl)-L-leucine] | slightly more fatty feeling | –
O=C(O)/C=C\C(=O)N[C@@H](CCC(=O)O)C(=O)O [Maleyl-Glu, (Z)-N-(3-carboxy-2-propenoyl)-L-glutamic acid] | slightly more juicy feeling | –
O=C(O)CCCC(=O)N[C@@H](CCC(=O)O)C(=O)O [glutaryl-Glu, N-(4-carboxybutanoyl)L-glutamic acid] | slightly more fatty feeling | –
O=C(O)CCC(=O)N[C@@H](CCC(=O)O)C(=O)O [succinoyl-Glu, N-(3-carboxypropionyl)-glutamic acid] | – | slightly acidic note together with a well perceivable umami taste or character having a broth connotation
CC(C)C[C@H](NC(=O)CCC(=O)O)C(=O)O [succinoyl-Leu, N-(3-carboxypropionyl)leucine] | – | slightly more acidic and slightly less umami taste than the one of succinoyl-Glu
